Patent US20260158017A1, “KIF18A INHIBITOR” (WIGEN BIOMEDICINE TECHNOLOGY (SHANGHAI) CO., LTD., priority 2021, published 2026)

Target: T1, Recombinant human KIF18A (1-467His-tagged) protein (Homo sapiens, UniProt Q8NI77)
T1 construct: Recombinant human KIF18A (1-467His-tagged) protein; His; made in house
Assay: KIF18A enzyme assay (microtubule-stimulated ATPase activity, ADP-Glo)
Type: biochemical
Conditions: 30 nM KIF18A, 75 μM ATP, 30 μg/mL pig microtubules; read-out: Inhibitory activity against KIF18A IC50
Procedure, shortened: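 Buffer 15 mM Tris pH 7.5, 10 mM MgCl2, 0.01% Pluronic F-68, 1 μM paclitaxel, 30 μg/mL pig microtubules; reactions at room temperature. IC50 from inhibition relative to DMSO.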

T1 sequence (Q8NI77 1-467): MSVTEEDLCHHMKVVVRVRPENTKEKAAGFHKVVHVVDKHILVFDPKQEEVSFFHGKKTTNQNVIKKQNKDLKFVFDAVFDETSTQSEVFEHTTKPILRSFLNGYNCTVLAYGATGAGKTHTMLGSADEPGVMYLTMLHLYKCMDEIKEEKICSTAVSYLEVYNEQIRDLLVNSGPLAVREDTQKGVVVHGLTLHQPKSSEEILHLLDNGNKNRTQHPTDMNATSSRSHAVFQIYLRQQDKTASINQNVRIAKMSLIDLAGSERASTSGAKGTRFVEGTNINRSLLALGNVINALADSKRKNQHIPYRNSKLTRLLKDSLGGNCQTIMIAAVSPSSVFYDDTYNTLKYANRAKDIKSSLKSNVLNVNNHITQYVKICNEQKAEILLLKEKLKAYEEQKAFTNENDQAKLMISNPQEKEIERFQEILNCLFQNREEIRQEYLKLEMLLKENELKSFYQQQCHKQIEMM
T1 sequence (P02550 whole entry partner): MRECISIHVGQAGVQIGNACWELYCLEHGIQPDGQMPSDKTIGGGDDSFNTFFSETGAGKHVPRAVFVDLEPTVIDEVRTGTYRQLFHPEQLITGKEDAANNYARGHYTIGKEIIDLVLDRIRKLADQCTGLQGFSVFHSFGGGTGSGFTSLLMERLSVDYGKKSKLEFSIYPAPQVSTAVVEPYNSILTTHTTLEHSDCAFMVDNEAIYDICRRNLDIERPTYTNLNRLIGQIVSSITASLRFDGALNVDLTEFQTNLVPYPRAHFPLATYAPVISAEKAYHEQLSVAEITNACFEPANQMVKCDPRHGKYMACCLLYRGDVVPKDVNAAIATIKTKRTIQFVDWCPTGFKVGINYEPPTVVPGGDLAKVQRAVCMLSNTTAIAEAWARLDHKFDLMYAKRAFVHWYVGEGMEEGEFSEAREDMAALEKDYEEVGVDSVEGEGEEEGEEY
T1 sequence (P02554 whole entry partner): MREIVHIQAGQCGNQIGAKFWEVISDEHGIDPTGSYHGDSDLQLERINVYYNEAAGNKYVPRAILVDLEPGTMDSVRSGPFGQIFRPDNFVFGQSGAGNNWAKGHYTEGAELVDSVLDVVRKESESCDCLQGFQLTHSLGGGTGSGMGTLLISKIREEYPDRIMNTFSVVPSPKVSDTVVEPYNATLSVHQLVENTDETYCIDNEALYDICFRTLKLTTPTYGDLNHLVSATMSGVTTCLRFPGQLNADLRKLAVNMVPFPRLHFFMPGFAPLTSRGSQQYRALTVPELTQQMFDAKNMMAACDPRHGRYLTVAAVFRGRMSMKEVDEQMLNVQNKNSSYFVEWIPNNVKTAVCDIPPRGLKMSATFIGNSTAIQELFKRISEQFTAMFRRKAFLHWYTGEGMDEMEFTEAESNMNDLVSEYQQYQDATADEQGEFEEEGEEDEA

IC50 [nM]	SMILES
≤ 100	O=C(Nc1ccc(OCF)c(N2CCOCC2)n1)c1cnc(NS(=O)(=O)CCO)cc1N1CCC2(CC1)CC2 [Compound 492]
≤ 100	C[C@@H](CO)S(=O)(=O)Nc1cc(N2CCC3(CC2)CC3)c(C(=O)Nc2ccc(OCF)c(N3CCC(F)(F)CC3)n2)cn1 [Compound 493]
≤ 100	C[C@H](CO)S(=O)(=O)Nc1cc(N2CCC3(CC2)CC3)c(C(=O)Nc2ccc(OCF)c(N3CCC(F)(F)CC3)n2)cn1 [Compound 494]
≤ 100	C[C@@H]1CN(c2nc(NC(=O)c3cnc(NS(=O)(=O)[C@@H](C)CO)cc3N3CCC4(CC3)CC4)ccc2OCF)CCO1 [Compound 495]
≤ 100	C[C@@H]1CN(c2nc(NC(=O)c3cnc(NS(=O)(=O)[C@H](C)CO)cc3N3CCC4(CC3)CC4)ccc2OCF)CCO1 [Compound 496]
≤ 100	C[C@@H]1CN(c2nc(NC(=O)c3cnc(S(=O)(=O)NCCO)cc3N3CCC4(CC3)CC4)ccc2OCF)CCO1 [Compound 498]
≤ 100	O=C(Nc1ccc(OCF)c(N2CC(F)(F)C2)n1)c1cnc(S(=O)(=O)NCCO)cc1N1CCC2(CC1)CC2 [Compound 500]
≤ 100	O=C(Nc1ccc(OCF)c(OCCC(F)(F)F)n1)c1cnc(S(=O)(=O)NCCO)cc1N1CCC2(CC1)CC2 [Compound 501]
≤ 100	CC1(F)CCN(c2nc(NC(=O)c3cnc(S(=O)(=O)NCCO)cc3N3CCC4(CC3)CC4)ccc2OCF)C1 (centres unmarked) [Compound 504]
≤ 100	C[C@H](CO)NS(=O)(=O)c1cc(N2CCC3(CC2)CC3)c(C(=O)Nc2ccc(OCF)c(N3CCC(F)(F)CC3)n2)cn1 [Compound 510]
≤ 100	O=C(Nc1ccc(NS(=O)(=O)CCO)cc1N1CCC2(CC1)CC2)c1ccc(OCF)c(N2CCC(F)(F)CC2)c1 [Compound 513]
≤ 100	C[C@@H]1CN(c2cc(C(=O)Nc3ccc(NS(=O)(=O)CCO)cc3N3CCC4(CC3)CC4)ccc2OCF)CCO1 [Compound 514]
≤ 100	O=C(Nc1ccc(NS(=O)(=O)CCO)cc1N1CCC2(CC1)CC2)c1ccc(OCF)c(OCCC(F)(F)F)c1 [Compound 517]
≤ 100	O=C(Nc1ccc(NS(=O)(=O)CCO)cc1N1CCC2(CC1)CC2)c1ccc(OCF)c(N2CCC3(CC3)C2)c1 [Compound 518]
≤ 100	O=C(Nc1ccc(NS(=O)(=O)CCO)cc1N1CCC2(CC1)CC2)c1ccc(OCF)c(N2CCC(F)CC2)c1 [Compound 521]
≤ 100	C[C@@H](CO)S(=O)(=O)Nc1ccc(NC(=O)c2ccc(OCF)c(N3CCC(F)(F)CC3)c2)c(N2CCC3(CC2)CC3)c1 [Compound 525]
≤ 100	C[C@H](CO)S(=O)(=O)Nc1ccc(NC(=O)c2ccc(OCF)c(N3CCC(F)(F)CC3)c2)c(N2CCC3(CC2)CC3)c1 [Compound 526]
≤ 100	C[C@@H]1CN(c2cc(C(=O)Nc3ccc(NS(=O)(=O)[C@H](C)CO)cc3N3CCC4(CC3)CC4)ccc2OCF)CCO1 [Compound 528]
100 to 500	O=C(Nc1ccc(S(=O)(=O)NCCO)cc1N1CCC2(CC1)CC2)c1ccc(OCF)c(N2CC(F)(F)C2)c1 [Compound 532]
100 to 500	O=C(Nc1ccc(S(=O)(=O)NCCO)cc1N1CCC2(CC1)CC2)c1ccc(OCF)c(OCCC(F)(F)F)c1 [Compound 533]
100 to 500	O=C(Nc1ccc(S(=O)(=O)NCCO)cc1N1CCC2(CC1)CC2)c1ccc(OCF)c(OC2CCC2)c1 [Compound 535]
100 to 500	CC1(F)CCN(c2cc(C(=O)Nc3ccc(S(=O)(=O)NCCO)cc3N3CCC4(CC3)CC4)ccc2OCF)C1 (centres unmarked) [Compound 536]
100 to 500	O=C(Nc1ccc(S(=O)(=O)NCCO)cc1N1CCC2(CC1)CC2)c1ccc(OCF)c(N2CCC(F)CC2)c1 [Compound 537]

Second part, the compound before the results:

SMILES	IC50 [nM]
O=C(Nc1ccc(OCF)c(N2CCC(F)(F)CC2)n1)c1cnc(S(=O)(=O)NCCO)cc1N1CCC2(CC1)CC2 [Compound 497]	≤ 100
C[C@H]1CN(c2nc(NC(=O)c3cnc(S(=O)(=O)NCCO)cc3N3CCC4(CC3)CC4)ccc2OCF)CCO1 [Compound 499]	≤ 100
O=C(Nc1ccc(OCF)c(N2CCC3(CC3)C2)n1)c1cnc(S(=O)(=O)NCCO)cc1N1CCC2(CC1)CC2 [Compound 502]	≤ 100
O=C(Nc1ccc(OCF)c(OC2CCC2)n1)c1cnc(S(=O)(=O)NCCO)cc1N1CCC2(CC1)CC2 [Compound 503]	≤ 100
O=C(Nc1ccc(OCF)c(N2CCC(F)CC2)n1)c1cnc(S(=O)(=O)NCCO)cc1N1CCC2(CC1)CC2 [Compound 505]	≤ 100
O=C(Nc1ccc(OCF)c(N2CC3CC3C2)n1)c1cnc(S(=O)(=O)NCCO)cc1N1CCC2(CC1)CC2 (centres unmarked) [Compound 506]	≤ 100
CC(C)(CO)Nc1nc(C(=O)Nc2cnc(S(=O)(=O)NCCO)cc2N2CCC3(CC2)CC3)ccc1OCF [Compound 507]	≤ 100
O=C(Nc1ccc(OCF)c(N2CCOCC2)n1)c1cnc(S(=O)(=O)NCCO)cc1N1CCC2(CC1)CC2 [Compound 508]	≤ 100
C[C@@H](CO)NS(=O)(=O)c1cc(N2CCC3(CC2)CC3)c(C(=O)Nc2ccc(OCF)c(N3CCC(F)(F)CC3)n2)cn1 [Compound 509]	≤ 100
C[C@@H]1CN(c2nc(NC(=O)c3cnc(S(=O)(=O)N[C@@H](C)CO)cc3N3CCC4(CC3)CC4)ccc2OCF)CCO1 [Compound 511]	≤ 100
C[C@H](CO)NS(=O)(=O)c1cc(N2CCC3(CC2)CC3)c(C(=O)Nc2ccc(OCF)c(N3CCO[C@H](C)C3)n2)cn1 [Compound 512]	≤ 100
C[C@H]1CN(c2cc(C(=O)Nc3ccc(NS(=O)(=O)CCO)cc3N3CCC4(CC3)CC4)ccc2OCF)CCO1 [Compound 515]	≤ 100
O=C(Nc1ccc(NS(=O)(=O)CCO)cc1N1CCC2(CC1)CC2)c1ccc(OCF)c(N2CC(F)(F)C2)c1 [Compound 516]	≤ 100
O=C(Nc1ccc(NS(=O)(=O)CCO)cc1N1CCC2(CC1)CC2)c1ccc(OCF)c(OC2CCC2)c1 [Compound 519]	≤ 100
CC1(F)CCN(c2cc(C(=O)Nc3ccc(NS(=O)(=O)CCO)cc3N3CCC4(CC3)CC4)ccc2OCF)C1 (centres unmarked) [Compound 520]	≤ 100
O=C(Nc1ccc(NS(=O)(=O)CCO)cc1N1CCC2(CC1)CC2)c1ccc(OCF)c(N2CC3CC3C2)c1 (centres unmarked) [Compound 522]	≤ 100
CC(C)(CO)Nc1cc(C(=O)Nc2ccc(NS(=O)(=O)CCO)cc2N2CCC3(CC2)CC3)ccc1OCF [Compound 523]	≤ 100
O=C(Nc1ccc(NS(=O)(=O)CCO)cc1N1CCC2(CC1)CC2)c1ccc(OCF)c(N2CCOCC2)c1 [Compound 524]	≤ 100
C[C@@H]1CN(c2cc(C(=O)Nc3ccc(NS(=O)(=O)[C@@H](C)CO)cc3N3CCC4(CC3)CC4)ccc2OCF)CCO1 [Compound 527]	≤ 100
O=C(Nc1ccc(S(=O)(=O)NCCO)cc1N1CCC2(CC1)CC2)c1ccc(OCF)c(N2CCC(F)(F)CC2)c1 [Compound 529]	100 to 500
C[C@@H]1CN(c2cc(C(=O)Nc3ccc(S(=O)(=O)NCCO)cc3N3CCC4(CC3)CC4)ccc2OCF)CCO1 [Compound 530]	100 to 500
C[C@H]1CN(c2cc(C(=O)Nc3ccc(S(=O)(=O)NCCO)cc3N3CCC4(CC3)CC4)ccc2OCF)CCO1 [Compound 531]	100 to 500
O=C(Nc1ccc(S(=O)(=O)NCCO)cc1N1CCC2(CC1)CC2)c1ccc(OCF)c(N2CCC3(CC3)C2)c1 [Compound 534]	100 to 500
O=C(Nc1ccc(S(=O)(=O)NCCO)cc1N1CCC2(CC1)CC2)c1ccc(OCF)c(N2CC3CC3C2)c1 (centres unmarked) [Compound 538]	100 to 500
